How the values were obtained:
[1] = Metabolic stability in cynomolgus monkey hepatocytes assessed as O-Dealkyl muraglitazar level by LC/MS analysis relative to control; type: ADME, cell-based, Macaca fascicularis, Hepatocyte
[2] = Biodistribution in orally dosed cynomolgus monkey urine assessed as O-dealkyl-O-demethyl muraglitazar level by LC/MS analysis; type: ADME, organism-based, Macaca fascicularis; conditions: in vivo, po
[3] = Drug concentration in human bile assessed as recovery of radioactive dose at 20 mg, po after 3 to 8 hrs; type: ADME, organism-based; conditions: in vivo
Hepatocyte [4] = assay: Metabolic stability in Sprague-Dawley rat hepatocytes assessed as 12-hydroxy-O-demethyl muraglitazar level by LC/MS analysis relative to control; type: ADME, cell-based
Plasma [5] = assay: Biodistribution in orally dosed cynomolgus monkey plasma assessed as […] muraglitazar level after 1 hr by LC/MS analysis; type: ADME, organism-based, Macaca fascicularis; conditions: in vivo, po
[6] = Tmax in cynomolgus monkey at 1.9 mg/kg, po after 24 hrs; type: ADME, organism-based, Macaca fascicularis; design: dose 1.9 mg/kg, route oral; conditions: in vivo
Hepatocyte [7] = assay: Metabolic stability in human hepatocytes assessed as O-Dealkyl muraglitazar level by LC/MS analysis relative to control; type: ADME, cell-based
Homo sapiens = assay: Cmax in human at 10 mg, po after 72 hrs; type: ADME, organism-based; design: dose 10 mg, route oral; conditions: in vivo
[8] = Drug concentration in bile duct-cannulated CD1 mouse feces assessed as recovery of radioactive dose at 40 mg/kg, po after 24 hrs; type: ADME, organism-based; design: dose 40 mg/kg, route oral; conditions: in vivo
Plasma [9] = assay: Biodistribution in orally dosed human plasma assessed as 8-hydroxy-O-demethyl muraglitazar level after 4 hrs by LC/MS analysis; type: ADME, organism-based; conditions: in vivo, po
Plasma [10] = assay: Biodistribution in orally dosed Sprague-Dawley rat plasma assessed as 8-hydroxy-O-demethyl muraglitazar level after 12 hrs by LC/MS analysis; type: ADME, organism-based; conditions: in vivo, po
[11] = Metabolic stability in CD1 mouse hepatocytes assessed as 12-hydroxy-O-demethyl muraglitazar level by LC/MS analysis relative to control; type: ADME, cell-based, Hepatocyte
[12] = Biodistribution in orally dosed cynomolgus monkey urine assessed as O-demethyl muraglitazar level by LC/MS analysis; type: ADME, organism-based, Macaca fascicularis; conditions: in vivo, po
Plasma [13] = assay: Biodistribution in orally dosed cynomolgus monkey plasma assessed as 12-hydroxy-O-demethyl muraglitazar level after 1 hr by LC/MS analysis; type: ADME, organism-based, Macaca fascicularis; conditions: in vivo, po
[14] = Biodistribution in orally dosed human urine assessed as 8-hydroxy muraglitazar level by LC/MS analysis; type: ADME, organism-based; conditions: in vivo, po
Hepatocyte [15] = assay: Metabolic stability in Sprague-Dawley rat hepatocytes assessed as hydroxyl-O-demethyl muraglitazar glucuronide level by LC/MS analysis relative to control; type: ADME, cell-based
Plasma [16] = assay: Biodistribution in orally dosed Sprague-Dawley rat plasma assessed as […] muraglitazar level after 12 hrs by LC/MS analysis; type: ADME, organism-based; conditions: in vivo, po
Rattus norvegicus [17] = assay: Biodistribution in orally dosed Sprague-Dawley rat urine assessed as muraglitazar 12-carboxylic acid level by LC/MS analysis; type: ADME, organism-based; conditions: in vivo, po
[18] = Tmax in Sprague-Dawley rat at 10 mg/kg, po after 24 hrs; type: ADME, organism-based; design: dose 10 mg/kg, route oral; conditions: in vivo
Hepatocyte [19] = assay: Metabolic stability in Sprague-Dawley rat hepatocytes assessed as O-demethyl muraglitazar glucuronide level by LC/MS analysis relative to control; type: ADME, cell-based
[20] = Drug concentration in cynomolgus monkey urine at 1.9 mg/kg, po after 12 hrs; type: ADME, organism-based, Macaca fascicularis; design: dose 1.9 mg/kg, route oral; conditions: read-out: Drug uptake
Rattus norvegicus [21] = assay: Biodistribution in orally dosed Sprague-Dawley rat urine assessed as 8,12-dihydroxy muraglitazar level by LC/MS analysis; type: ADME, organism-based; conditions: in vivo, po
Plasma [22] = assay: Biodistribution in orally dosed Sprague-Dawley rat plasma assessed as 12-hydroxy-O-demethyl muraglitazar level after 12 hrs by LC/MS analysis; type: ADME, organism-based; conditions: in vivo, po
[23] = Biodistribution in orally dosed cynomolgus monkey feces assessed as 8,12-dihydroxy muraglitazar level by LC/MS analysis; type: ADME, organism-based, Macaca fascicularis; conditions: in vivo, po
Hepatocyte [24] = assay: Metabolic stability in human hepatocytes assessed as 8,12-dihydroxy muraglitazar level by LC/MS analysis relative to control; type: ADME, cell-based
Hepatocyte [25] = assay: Metabolic stability in Sprague-Dawley rat hepatocytes assessed as 12-hydroxy muraglitazar level by LC/MS analysis relative to control; type: ADME, cell-based
[26] = Biodistribution in orally dosed cynomolgus monkey feces assessed as 17-hydroxy-O-demethyl muraglitazar level by LC/MS analysis; type: ADME, organism-based, Macaca fascicularis; conditions: in vivo, po
[27] = Biodistribution in orally dosed cynomolgus monkey urine assessed as muraglitazar glucuronide level by LC/MS analysis; type: ADME, organism-based, Macaca fascicularis; conditions: in vivo, po
[28] = Biodistribution in orally dosed cynomolgus monkey urine assessed as 12,17-dihydroxy muraglitazar level by LC/MS analysis; type: ADME, organism-based, Macaca fascicularis; conditions: in vivo, po
[29] = Biodistribution in orally dosed human feces assessed as muraglitazar 12-carboxylic acid level by LC/MS analysis; type: ADME, organism-based; conditions: in vivo, po
Plasma [30] = assay: Biodistribution in orally dosed Beagle dog plasma assessed as 12-hydroxy-O-demethyl muraglitazar level after 1 hr by LC/MS analysis; type: ADME, organism-based, Canis lupus familiaris; conditions: in vivo, po
[31] = Biodistribution in orally dosed Beagle dog feces assessed as acetylimide derivative of muraglitazar level by LC/MS analysis; type: ADME, organism-based, Canis lupus familiaris; conditions: in vivo, po
Hepatocyte [32] = assay: Metabolic stability in Sprague-Dawley rat hepatocytes assessed as 12,17-dihydroxy muraglitazar level by LC/MS analysis relative to control; type: ADME, cell-based
[33] = Biodistribution in orally dosed cynomolgus monkey feces assessed as imide derivative of muraglitazar level by LC/MS analysis; type: ADME, organism-based, Macaca fascicularis; conditions: in vivo, po
[34] = Biodistribution in orally dosed cynomolgus monkey urine assessed as 12-hydroxy muraglitazar level by LC/MS analysis; type: ADME, organism-based, Macaca fascicularis; conditions: in vivo, po
Plasma [35] = assay: Biodistribution in orally dosed cynomolgus monkey plasma assessed as 17-dihydroxy muraglitazar level after 4 hrs by LC/MS analysis; type: ADME, organism-based, Macaca fascicularis; conditions: in vivo, po
Canis familiaris = assay: Cmax in Beagle dog at 2 mg/kg, po after 4 hrs; type: ADME, organism-based, Canis lupus familiaris; design: dose 2 mg/kg, route oral; conditions: in vivo
Plasma [36] = assay: Biodistribution in orally dosed Sprague-Dawley rat plasma assessed as O-demethyl muraglitazar level after 1 hr by LC/MS analysis; type: ADME, organism-based; conditions: in vivo, po
Hepatocyte [37] = assay: Metabolic stability in Sprague-Dawley rat hepatocytes assessed as 8,12-dihydroxy muraglitazar level by LC/MS analysis relative to control; type: ADME, cell-based
Hepatocyte [38] = assay: Metabolic stability in human hepatocytes assessed as 9-hydroxy-O-demethyl muraglitazar level by LC/MS analysis relative to control; type: ADME, cell-based
[39] = Drug concentration in human bile at 20 mg/kg, po after 48 hrs; type: ADME, organism-based; design: dose 20 mg/kg, route oral; conditions: in vivo
[40] = Biodistribution in orally dosed human feces assessed as O-dealkyl-O-demethyl muraglitazar level by LC/MS analysis; type: ADME, organism-based; conditions: in vivo, po
Plasma [41] = assay: Biodistribution in orally dosed human plasma assessed as muraglitazar glucuronide level after 12 hrs by LC/MS analysis; type: ADME, organism-based; conditions: in vivo, po
Plasma [42] = assay: Biodistribution in orally dosed human plasma assessed as 12-hydroxy-O-demethyl muraglitazar level after 12 hrs by LC/MS analysis; type: ADME, organism-based; conditions: in vivo, po
[43] = Metabolic stability in cynomolgus monkey hepatocytes assessed as 9-hydroxy muraglitazar level by LC/MS analysis relative to control; type: ADME, cell-based, Macaca fascicularis, Hepatocyte
Plasma [44] = assay: Biodistribution in orally dosed human plasma assessed as 17-dihydroxy muraglitazar level after 4 hrs by LC/MS analysis; type: ADME, organism-based; conditions: in vivo, po
[45] = Metabolic stability in CD1 mouse hepatocytes assessed as 12,17-dihydroxy muraglitazar level by LC/MS analysis relative to control; type: ADME, cell-based, Hepatocyte
Plasma [46] = assay: Biodistribution in orally dosed Beagle dog plasma assessed as O-Dealkyl muraglitazar level after 1 hr by LC/MS analysis; type: ADME, organism-based, Canis lupus familiaris; conditions: in vivo, po
[47] = Biodistribution in orally dosed human urine assessed as 12-hydroxy muraglitazar level by LC/MS analysis; type: ADME, organism-based; conditions: in vivo, po
Plasma [48] = assay: Biodistribution in orally dosed Sprague-Dawley rat plasma assessed as O-Dealkyl muraglitazar level after 12 hrs by LC/MS analysis; type: ADME, organism-based; conditions: in vivo, po
Plasma [49] = assay: Biodistribution in orally dosed cynomolgus monkey plasma assessed as […] muraglitazar level after 4 hrs by LC/MS analysis; type: ADME, organism-based, Macaca fascicularis; conditions: in vivo, po
[50] = Metabolic stability in CD1 mouse hepatocytes assessed as muraglitazar glucuronide level by LC/MS analysis relative to control; type: ADME, cell-based, Hepatocyte

SMILES: COc1ccc(OC(=O)N(CC(=O)O)Cc2ccc(OCCc3nc(-c4ccccc4)oc3C)cc2)cc1 [MURAGLITAZAR]
- Drug uptake [1]: 7.6%
- Drug uptake [2]: 0.33%
- Drug uptake [3]: 39.9%
- Drug uptake (Hepatocyte [4]): < 0.2%
- Drug uptake (Plasma [5]): 0.9%
- Tmax [6]: 1 h
- Drug uptake (Hepatocyte [7]): 5.7%
- Cmax (Homo sapiens): 1.4 ugequiv/ml
- Drug uptake [8]: 12%
- Drug uptake (Plasma [9]): < 0.05%
- Drug uptake (Plasma [10]): 0.05%
- Drug uptake [11]: 3%
- Drug uptake [12]: 0.08%
- Drug uptake (Plasma [13]): 1.5%
- Drug uptake [14]: 0.03%
- Drug uptake (Hepatocyte [15]): < 0.2%
- Drug uptake (Plasma [16]): < 0.05%
- Drug uptake (Rattus norvegicus [17]): < 0.01%
- Tmax [18]: 30 min
- Drug uptake (Hepatocyte [19]): < 0.2%
- dose excreted at 12 h [20]: 1.7%
- Drug uptake (Rattus norvegicus [21]): < 0.01%
- Drug uptake (Plasma [22]): < 0.05%
- Drug uptake [23]: 2.41%
- Drug uptake (Hepatocyte [24]): < 0.2%
- Drug uptake (Hepatocyte [25]): 1.3%
- Drug uptake [26]: 3.22%
- Drug uptake [27]: 0.02%
- Drug uptake [28]: 0.13%
- Drug uptake [29]: 0.13%
- Drug uptake (Plasma [30]): 1%
- Drug uptake [31]: 0.18%
- Drug uptake (Hepatocyte [32]): 0.3%
- Drug uptake [33]: 0.56%
- Drug uptake [34]: 0.04%
- Drug uptake (Plasma [35]): 16.2%
- Cmax (Canis familiaris): 1 ugequiv/ml
- Drug uptake (Plasma [36]): 2.3%
- Drug uptake (Hepatocyte [37]): < 0.2%
- Drug uptake (Hepatocyte [38]): < 0.2%
- Drug uptake [39]: 0.068 mgequiv/ml
- Drug uptake [40]: 0.4%
- Drug uptake (Plasma [41]): 2.5%
- Drug uptake (Plasma [42]): 1%
- Drug uptake [43]: 0.6%
- Drug uptake (Plasma [44]): 0.3%
- Drug uptake [45]: 0.8%
- Drug uptake (Plasma [46]): 2%
- Drug uptake [47]: 0.03%
- Drug uptake (Plasma [48]): 0.05%
- Drug uptake (Plasma [49]): 1.3%
- Drug uptake [50]: 5.2%

— ChEMBL document CHEMBL1147043, “Comparative metabolism of radiolabeled muraglitazar in animals and humans by quantitative and qualitative metabolite profiling” (Drug Metab Dispos, 2007)
